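Tested at 5 concentrations; 48 h exposure; 96-well plates; endpoints linearly interpolated, else capped at highest concentration. Abbreviation: GI50, concentration required for 50% inhibition of growth. TGI denotes the concentration required for complete inhibition of growth.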
Assays:
Assay in all cases: NCI-60 cell line screen, 48 h
KM12 colon = system: KM12 colon
MOLT-4 leukemia = system: MOLT-4 leukemia
SF-268 CNS = system: SF-268 CNS
SW-620 colon = system: SW-620 colon
OVCAR-4 ovarian = system: OVCAR-4 ovarian
CAKI-1 renal = system: CAKI-1 renal
NCI-H460 lung = system: NCI-H460 lung
HCC-2998 colon = system: HCC-2998 colon
NCI-H23 lung = system: NCI-H23 lung

| Compound | TGI (KM12 colon) [µM] | TGI (MOLT-4 leukemia) [µM] | TGI (SF-268 CNS) [µM] | TGI (SW-620 colon) [µM] | TGI (OVCAR-4 ovarian) [µM] | TGI (CAKI-1 renal) [µM] | TGI (NCI-H460 lung) [µM] | TGI (HCC-2998 colon) [µM] | TGI (NCI-H23 lung) [µM] | GI50 (KM12 colon) [µM] | GI50 (OVCAR-4 ovarian) [µM] | GI50 (CAKI-1 renal) [µM] | GI50 (NCI-H460 lung) [µM] |
| --- | --- | --- | --- | --- | --- | --- | --- | --- | --- | --- | --- | --- | --- |
| CC(C)Nc1[nH]c(C(=O)c2ccccc2)c(N)c1C(=S)Nc1ccccc1 | > 100 | > 100 | > 100 | > 100 | > 100 | > 100 | > 100 | 46.2 | > 100 |  |  |  |  |
| ClC(Cl)(Cl)C1CCOC1n1nc2ccccc2n1 (stereo not given) |  | > 100 | > 100 |  | > 100 | > 100 | > 100 | > 100 | > 100 |  |  |  |  |
| N#Cc1ncn(-c2ccccc2)c1N | > 100 | > 100 | > 100 | > 100 | > 100 | > 100 | > 100 | > 100 | > 100 |  |  |  |  |
| Cc1cn(CC2=NCCN2)c(=O)[nH]c1=O | > 100 | > 100 | > 100 | > 100 | > 100 | > 100 | > 100 | > 100 | > 100 |  |  |  |  |
| COc1cc2c(cc1OC)C1Cc3ccccc3CCN1CC2 (stereo not given) | > 100 | > 100 | > 100 | > 100 | > 100 | > 100 | > 100 | > 100 | > 100 |  |  |  |  |
| COc1cc2cc(Oc3ccc(NC(=O)Nc4ccc(F)c(C(F)(F)F)c4)cc3)c(C)nc2cc1OCCN1CCCCC1 | 3.3 |  |  |  | 3.13 | 2.78 | 3.6 |  |  | 1.77 | 1.6 | 1.47 | 1.89 |
| CSc1c(C(=O)Nc2ccc(C)cc2)c(N)nn1-c1ccccc1 |  | > 100 | > 100 | > 100 | > 100 | 49.9 | 42.9 | > 100 | > 100 |  |  |  |  |
| Nc1nc(Cl)c(C=O)c(NCC2(CO)CC(CCc3ccccc3)C2)n1 (stereo not given) | 28.5 | 9.01 | 36.5 | 15.3 | 4.21 | 3.14 | 33.8 | 4.94 | 5.49 |  |  |  |  |
| N#C/C(=C1\N=C(c2ccccc2O)Oc2ccccc21)c1ccc([N+](=O)[O-])cc1 | > 100 | > 100 | > 100 | > 100 | > 100 | > 100 | > 100 | > 100 | > 100 |  |  |  |  |
| Clc1ccccc1/C=C/c1nsc(/C=C/c2ccccc2Cl)n1 | > 100 | > 100 | > 100 |  | > 100 | > 100 | 46.4 |  |  |  |  |  |  |
| COc1ncnc2c1cnn2Cc1cn(COCC(O)CO)nn1 (stereo not given) | > 100 | > 100 | 35 | > 100 | > 100 | > 100 |  | > 100 | > 100 |  |  |  |  |
| CC(C)(C)c1cc(C(=O)/C=C/c2ccc(O)c(O)c2O)cc(C(C)(C)C)c1O | 11.6 | 28.9 | > 51.4 | 17.9 | 26.5 | 15.6 | 6.56 | 11.7 | 20 |  |  |  |  |
| O=C(c1ccc(Cl)cc1Cl)N(Cc1cccnc1)C(=S)N(Cc1cccnc1)C(=O)c1ccc(Cl)cc1Cl | 18.8 | > 100 | 20.4 | 80.5 | 7.99 | 34.4 | 39.2 | 8.97 | 44.6 |  |  |  |  |
| Cc1nc2c(o1)C(=O)c1ccccc1C2=NC1CCCCC1N (stereo not given) | 3.18 | 1.46 | 3.82 | 1.38 | 1.01 | 3.12 | 3.15 | 3.02 | 0.276 |  |  |  |  |
| O=C(O)C(Cc1ccc2c(c1)CCC2)(Cc1ccc2c(c1)CCC2)C(=O)O | > 100 | > 100 | > 100 | > 100 | > 100 |  | > 100 | > 100 | > 100 |  |  |  |  |
| Cn1c(=O)n2n(c1=O)Cc1cccc3cccc(c13)C2 | > 100 | > 100 | > 100 | > 100 | > 100 | > 100 | > 100 | > 100 | > 100 |  |  |  |  |
| S=C(NNC1=NCCCN1)Nc1ccccc1 | > 100 | > 100 | > 100 | > 100 | > 100 | > 100 | > 100 | > 100 | > 100 |  |  |  |  |
| CC1=C2C(=O)O[C@@H](c3ccoc3)[C@]2(C)CCC1=O | > 100 | > 100 |  | > 100 |  | > 100 | > 100 | > 100 | > 100 |  |  |  |  |
| CNNC1=NS(=O)(=O)c2cc(C)c(Cl)cc2S1 | > 10 | > 10 | > 10 | > 10 | > 10 | > 10 | > 10 | > 10 | > 10 |  |  |  |  |
| CCOc1ccc2ccccc2c1NC1=NCCO1 | 76.7 | 84 | > 100 | > 100 | > 100 |  | 57.7 | > 100 | > 100 |  |  |  |  |
| Cc1c2c(c(C)n1-c1ccccc1)C(=O)N(CCSC(=N)N)C2=O | > 100 | > 100 | > 100 | > 100 | > 100 | > 100 | > 100 | > 100 | > 100 |  |  |  |  |
| O=[N+]([O-])c1cccc(N=C2c3ccccc3CN2c2cccc([N+](=O)[O-])c2)c1 | > 100 | > 100 | > 100 | > 100 | > 100 | > 100 | > 100 | > 100 | > 100 |  |  |  |  |
| COC(=O)C1Cc2ccc(C)cc2C1=O (stereo not given) | > 100 | > 100 | > 100 | > 100 | > 100 | > 100 | > 100 | > 100 | > 100 |  |  |  |  |
